Legend:
[1] = test system: Pan02 tumor cells; assay: Subcutaneous murine pancreatic cancer syngenic model (Pan02); assay type: in vivo, C57BL/6 mice; parameters: Mean % inhibition of tumor volume Pan02 model: concentration or dose not given beside the values
Procedure: (§1) The objective of this study was to evaluate preclinically the in vivo therapeutic efficacy study of compounds according to the present invention for the treatment of subcutaneously murine pancreatic cancer syngenic model (Pan02) in female C57BL/6 mice and kidney cancer syngenic model (Renca) in female BALB/c mice.
Cell Culture: the Pan02 tumor cells were maintained in vitro with RPMI 1640 medium supplemented with 10% fetal bovine serum at 37° C. in an atmosphere of 5% CO2 in air. The cells in exponential growth phase were harvested and quantitated by cell counter before tumor inoculation.
Tumor Inoculation for Pan02 model: each mouse was inoculated subcutaneously in the right front flank region with Pan02 tumor cells (3×10^6) in 0.1 mL of PBS for tumor development.
(§2) Randomization: The randomization was started when the mean tumor size reaches approximately 100 (80-110) mm^3. For both models, 48 mice were enrolled in the study. All animals were randomly allocated to 6 study groups. Randomization were performed based on “Matched distribution” method using the multi-task method (StudyDirector™ software, version 3.1.399.19). The date of randomization was denoted as day 0.
(§3) Observation and Data Collection: After tumor cells inoculation, the animals were checked daily for morbidity and mortality. During routine monitoring, the animals were checked for any effects of tumor growth and treatments on behavior such as mobility, food and water consumption, body weight gain/loss (body weights were measured twice per week after randomization), eye/hair matting and any other abnormalities. Mortality and observed clinical signs were recorded for individual animals in detail.
(§4) Tumor volumes were measured twice per week after randomization in two dimensions using a caliper, and the volume were expressed in mm3 using the formula: “V=(L×W×W)/2, where V is tumor volume, L is tumor length (the longest tumor dimension) and W is tumor width (the longest tumor dimension perpendicular to L). Tumor weight were measured at the end of study. Dosing as well as tumor and body weight measurements were conducted in a Laminar Flow Cabinet.
(§5) Statistical Analysis: To compare tumor volumes of different groups at a pre-specified day, Bartlett's test was firstly used to check the assumption of homogeneity of variance across all groups. When the p-value of Bartlett's test is >0.05, One-way ANOVA were used to test overall equality of means across all groups.
(§6) If the p-value of the One-way ANOVA is <0.05, post hoc testing by running Tukey's HSD (honest significant difference) tests for all pairwise comparisons, and Dunnett's tests for comparing each treatment group with the vehicle group were performed. When the p-value of Bartlett's test is <0.05, Kruskal-Wallis test were used to test overall equality of medians among all groups. If the p-value the Kruskal-Wallis test is <0.05, post hoc testing by running Conover's non-parametric test for all pairwise comparisons or for comparing each treatment group with the vehicle group were performed, both with single-step p-value adjustment. All statistical analyses were done in R-a language and environment for statistical computing and graphics (version 3.3.1). All tests are two-sided unless otherwise specified, and p-values of <0.05 are regarded as statistically significant.

[2] = test system: Renca tumor cells; assay: Subcutaneous kidney cancer syngenic model (Renca); assay type: in vivo, BALB/c mice; parameters: concentration or dose not given beside the values
Source text: as §1
The cells in exponential growth phase were harvested and quantitated by cell counter before tumor inoculation.
Tumor Inoculation for Renca model: each mouse was inoculated subcutaneously in the right rear flank region with Renca tumor cells (1×10^6) in 0.1 mL of PBS for tumor development.
as §2, §3, §4, §5, §6

[3] = day 13, 15 mg/kg, 5 μL/g, I.V., QD*5 for 2 weeks

O=C(O)c1cc(O)cc(CS(=O)(=O)Cc2cc(O)cc(C(=O)O)c2O)c1O [IVc-059a, 3-((2,5-Dihydroxy-3-carboxyphenyl)methylsulfonylmethyl)-2,5-dihydroxybenzoic acid]
Tumor growth (in words) ([1]; 15 mg/kg I.V.): significantly suppressed tumor growth
TGI value ([1]; 15 mg/kg I.V., P<0.05): 20.98%
Mean % inhibition of tumor volume Pan02 model ([1]; Day 0): −0.11%
Mean % inhibition of tumor volume Pan02 model ([1]; Day 3): 19.86%
Mean % inhibition of tumor volume Pan02 model ([1]; Day 6): 18.64%
Mean % inhibition of tumor volume Pan02 model ([1]; Day 9): 18.49%
Mean % inhibition of tumor volume Pan02 model ([1]; Day 13): 20.98%
TGI (%) [1, 3]: 20.98%
Tumor volume ± SEM (mm^3) [1, 3]: 148.49 ± 7.05 (8) mm^3
Mean % inhibition of tumor volume Renca model ([2]; Day 0): 0.05%
Mean % inhibition of tumor volume Renca model ([2]; Day 3): −0.90%
Mean % inhibition of tumor volume Renca model ([2]; Day 6): 5.02%
Mean % inhibition of tumor volume Renca model ([2]; Day 9): 14.83%
Mean % inhibition of tumor volume Renca model ([2]; Day 13): 23.07%
Mean % inhibition of tumor volume Renca model ([2]; Day 16): 19.42%
